Results as given in US8354400B2, “Benzoxazole compounds and methods of use” (Eisai R&D Co., Ltd., priority 2008, dated 2013).
Like-named read-outs stand apart in the source and are kept apart here.

Columns and labels:
Assay type in all cases: cell-based
[1] = target: T1, human TLR7 (Homo sapiens, UniProt Q9NYK1); test: HEK/TLR7 activation assay (R848 stimulation); details: HEK cells transfected with human TLR7
T1 construct: expressed in transfected cells; host or cells: HEK cell line (HEK293, as in the primary assay)
T1 sequence (Q9NYK1 27-1049): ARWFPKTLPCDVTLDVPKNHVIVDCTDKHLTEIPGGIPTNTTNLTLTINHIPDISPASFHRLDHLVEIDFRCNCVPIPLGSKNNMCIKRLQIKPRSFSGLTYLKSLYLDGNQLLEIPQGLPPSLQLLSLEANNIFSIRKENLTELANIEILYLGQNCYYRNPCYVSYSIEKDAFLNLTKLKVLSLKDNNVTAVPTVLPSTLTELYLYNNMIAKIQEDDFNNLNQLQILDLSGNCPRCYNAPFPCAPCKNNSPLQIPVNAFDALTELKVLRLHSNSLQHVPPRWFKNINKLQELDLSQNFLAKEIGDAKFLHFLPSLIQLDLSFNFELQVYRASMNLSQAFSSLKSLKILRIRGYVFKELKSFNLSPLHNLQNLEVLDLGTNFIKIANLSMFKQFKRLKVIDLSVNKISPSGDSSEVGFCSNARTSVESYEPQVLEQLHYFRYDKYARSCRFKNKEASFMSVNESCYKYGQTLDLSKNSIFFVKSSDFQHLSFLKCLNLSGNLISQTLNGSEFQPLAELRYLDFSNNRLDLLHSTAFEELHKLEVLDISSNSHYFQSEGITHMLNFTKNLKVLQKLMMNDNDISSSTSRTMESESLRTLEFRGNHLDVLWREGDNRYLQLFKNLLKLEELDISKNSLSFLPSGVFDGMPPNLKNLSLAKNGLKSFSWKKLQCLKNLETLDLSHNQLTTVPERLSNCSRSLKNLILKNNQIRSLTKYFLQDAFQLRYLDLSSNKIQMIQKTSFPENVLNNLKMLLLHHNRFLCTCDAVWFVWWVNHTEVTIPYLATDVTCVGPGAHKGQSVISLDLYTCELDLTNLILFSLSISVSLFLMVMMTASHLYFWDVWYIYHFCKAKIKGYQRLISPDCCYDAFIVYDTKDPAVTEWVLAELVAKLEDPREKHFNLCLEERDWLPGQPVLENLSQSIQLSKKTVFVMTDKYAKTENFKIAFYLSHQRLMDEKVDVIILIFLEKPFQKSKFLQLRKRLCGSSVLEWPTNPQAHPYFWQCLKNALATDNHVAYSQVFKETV
Description: (1) HEK/TLR7Activation Assay: The same compounds were tested in the same way as the primary assay with the following differences. The plasmid used to transfect the HEK cell line encoded for human TLR7 instead of TLR9, and R848 was used to stimulate the cells instead of Oligo CpG 2006.

[2] = tested on: dissociated mouse splenocytes; test: Spleen CellTiter-Glo viability assay; details: Splenocyte, 72 hours, viability (ATP)
Description: (3) Spleen CT Glo Assay: To determine if compounds had adverse effects on living cells, dissociated mouse splenocytes were incubated with some of the compounds for 72 hours. At the end of the incubation Celliter-Glo™ reagent (Promega Corporation, Madison, Wis.) was added and luminescence was read per manufacturer's instructions. This reagent measures ATP as an indication of cell metabolism. Dead cells will not produce signal. IC50 is defined as the concentration of compound that suppresses viability to 50% of that observed in the absence of compound. The few compounds that measurably affected viability did so at concentrations far above those that affected cytokine release in response to TLR9 stimulation.

[3] = target: T2, human TLR9 (Homo sapiens, UniProt Q9NR96); test: Primary assay: HEK/TLR9 activation (NF-kB luciferase reporter, Oligo CpG 2006 stimulation)
T2 construct: expressed in transfected cells; host or cells: HEK293 (ATCC No. CRP-1573 [sic])
T2 sequence (Q9NR96 26-1032): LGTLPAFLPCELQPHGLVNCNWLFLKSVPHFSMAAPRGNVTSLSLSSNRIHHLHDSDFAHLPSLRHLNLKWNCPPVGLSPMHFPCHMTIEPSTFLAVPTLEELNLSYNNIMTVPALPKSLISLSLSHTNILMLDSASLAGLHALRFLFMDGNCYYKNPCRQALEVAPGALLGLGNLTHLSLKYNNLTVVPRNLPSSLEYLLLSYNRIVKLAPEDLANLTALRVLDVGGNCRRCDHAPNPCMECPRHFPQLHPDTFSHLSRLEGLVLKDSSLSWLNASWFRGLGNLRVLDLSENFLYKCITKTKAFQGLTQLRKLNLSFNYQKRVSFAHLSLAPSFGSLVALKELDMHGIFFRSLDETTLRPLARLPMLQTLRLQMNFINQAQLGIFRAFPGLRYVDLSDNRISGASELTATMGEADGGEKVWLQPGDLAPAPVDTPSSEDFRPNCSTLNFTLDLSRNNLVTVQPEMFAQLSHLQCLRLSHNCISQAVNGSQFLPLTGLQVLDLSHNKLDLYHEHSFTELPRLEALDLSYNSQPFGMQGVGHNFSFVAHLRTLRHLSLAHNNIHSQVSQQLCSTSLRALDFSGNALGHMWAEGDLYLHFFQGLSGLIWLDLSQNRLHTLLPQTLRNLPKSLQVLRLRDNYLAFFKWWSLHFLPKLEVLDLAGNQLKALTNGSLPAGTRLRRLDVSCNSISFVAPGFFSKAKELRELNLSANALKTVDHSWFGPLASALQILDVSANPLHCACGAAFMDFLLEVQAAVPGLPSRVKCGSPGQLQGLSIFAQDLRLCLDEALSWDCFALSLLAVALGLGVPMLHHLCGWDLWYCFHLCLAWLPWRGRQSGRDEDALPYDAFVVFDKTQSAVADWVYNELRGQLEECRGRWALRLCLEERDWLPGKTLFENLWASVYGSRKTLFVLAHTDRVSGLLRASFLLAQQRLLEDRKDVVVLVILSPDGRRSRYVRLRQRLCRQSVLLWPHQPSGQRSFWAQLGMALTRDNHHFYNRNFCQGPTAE
Source text: A. Primary Assay. The primary assay involved transfecting human embryonic kidney epithelial (HEK) cells with TLR9. More specifically, HEK293 […] cells (ATCC No. CRP-1573, American Type Culture Collection, Manassas, Va.) were transfected with pcDNA3.1D/V5-His-TOPO® plasmid (Invitrogen, Carlsbad, Calif.) encoding human TLR9 (directly inserted as a Tag polymerase-amplified PCR product) and firefly luciferase under the control of three NF-kB binding sites contained in the E-selectin-1 promoter, which was cloned into a pGL3-Enhancer Vector (Promega Corp, Madison, Wis.). Each compound was added to cells 30 min. before stimulation with Oligo CpG 2006, a synthetic phosphorothioate oligonucleotide (Hartmann et al., J Immunol. 164:1617-24 (2000)), with nucleotide sequence 5′-TCGTCGTTTTGTCGTTTTGTCGTT-3′ (SEQ ID NO:1). The cells were incubated overnight at 37° C. The luciferase substrate Steady-Glo® (Promega) was added to the wells, and luminescence was measured to determine the extent of TLR9-driven gene activation. The luminescence data was used to calculate an IC50 for each sample. The IC50 is defined as the concentration of compound that suppresses the luminescence to 50% of that observed in the absence of compound, in other words, with full stimulation.

[4] = tested on: mouse spleen IL-6 production in response to Oligo CpG 1668; test: Splenocyte CpG 1668 assay (IL-6 ELISA); details: mouse splenocytes, Oligo CpG 1668, 72 hrs
Description: (2) Splenocyte CpG 1668 Assay: Some of the compounds tested in the primary assay were also assayed for suppression of mouse spleen IL-6 production in response to stimulation with Oligo CpG 1668, a synthetic phosphorothioate oligonucleotide (Krieg et al. Nature. 374:546-9 (1995)), with nucleotide sequence [NT] (SEQ ID NO:2). Each compound was added to dissociated splenocytes before addition of stimulatory oligonucleotide. Cells were stimulated in culture for 72 hrs and the supernatant was removed for ELISA analysis of IL-6 level. Here the IC50 is defined as the concentration of compound that suppresses cytokine production to 50% of that observed in the absence of compound, i.e., full stimulation.

[5] = HEK293 transfected with human TLR9 and NF-kB luciferase, compound 30 min before Oligo CpG 2006, overnight, read-out: HEK/TLR9 IC50
[6] = read-out: IC50 in the primary HEK/TLR9 assay

IC50 [1] [nM]	IC50 [3, 5] [nM]	IC50 [4] [nM]	IC50 [3, 6] [nM]	Compound	IC50 [2] [nM]
1240	13.3	–	–	CCN(C)CCCOc1ccc(-c2nc3ccc(OCCCN(C)CC)cc3o2)cc1 [Compound 21]	9580
1310	23.3	–	–	COCCNCCCOc1ccc(-c2nc3ccc(OCCCNCCOC)cc3o2)cc1 [Compound 7]	> 10000
2000	11	–	–	CN(C)CCCOc1cccc(-c2nc3ccc(OCCCN(C)C)cc3o2)c1 [Compound 5]	–
8520	100	–	–	CCNCCCOc1ccc(-c2nc3ccc(OCCCNCC)cc3o2)cc1 [Compound 33]	–
–	18.2	48	–	COC[C@@H]1CCCN1CCCOc1ccc(-c2nc3ccc(OCCCN4CCC[C@H]4COC)cc3o2)cc1 [Compound 25]	> 10000
1800	12	–	–	CN(C)CCCOc1ccc2nc(-c3ccccc3OCCCN(C)C)oc2c1 [Compound 4]	–
8410	20.2	–	–	O[C@H]1CC[C@H](NCCCOc2ccc(-c3nc4ccc(OCCCN[C@H]5CC[C@H](O)CC5)cc4o3)cc2)CC1 [Compound 6]	–
1100	27.6	–	–	c1cc(N2CCN(CCCOc3ccc(-c4nc5ccc(OCCCN6CCN(c7ccncc7)CC6)cc5o4)cc3)CC2)ccn1 [Compound 19]	10000
1230	19.7	–	–	c1ccc(CNCCCOc2ccc(-c3nc4ccc(OCCCNCc5ccccn5)cc4o3)cc2)nc1 [Compound 8]	7820
2690	–	1020	160	c1cc(-c2nc3ccc(OC4CCNC4)cc3o2)ccc1OC1CCNC1 (stereo not drawn) [Comparator, reference compound]	–
> 2500	38	–	–	CN(C)CCOCCN(C)CCCOc1ccc(-c2nc3ccc(OCCCN(C)CCOCCN(C)C)cc3o2)cc1 [Compound 36]	–
1400	23	–	–	CN(C)CCCCCOc1ccc(-c2nc3ccc(OCCCCCN(C)C)cc3o2)cc1 [Compound 3]	–
7800	31	290	60	CN(C)CCOc1ccc(-c2nc3ccc(OCCN(C)C)cc3o2)cc1 [Compound 1]	–
580	9.6	10	–	CCN(CC)CCN(CC)CCCOc1ccc(-c2nc3ccc(OCCCN(CC)CCN(CC)CC)cc3o2)cc1 [Compound 32]	> 10000
780	19.3	42	–	CCCN(C)CCCOc1ccc(-c2nc3ccc(OCCCN(C)CCC)cc3o2)cc1 [Compound 29]	10400
> 2500	30	–	–	CN(C)CCCOCCCN(C)CCCOc1ccc(-c2nc3ccc(OCCCN(C)CCCOCCCN(C)C)cc3o2)cc1 [Compound 37]	–
> 2500	34	–	–	CN(C)CCCCN(C)CCCOc1ccc(-c2nc3ccc(OCCCN(C)CCCCN(C)C)cc3o2)cc1 [Compound 38]	–
1550	12.5	–	–	C1=CCN(CCCOc2ccc(-c3nc4ccc(OCCCN5CC=CCC5)cc4o3)cc2)CC1 [Compound 28]	> 10000
2240	23.2	–	–	CCOCCN1CCN(CCCOc2ccc(-c3nc4ccc(OCCCN5CCN(CCOCC)CC5)cc4o3)cc2)CC1 [Compound 15]	> 10000
1400	19.2	–	–	COCCN(C)CCCOc1ccc(-c2nc3ccc(OCCCN(C)CCOC)cc3o2)cc1 [Compound 18]	9900
600	6.4	8	–	c1cc(-c2nc3ccc(OCCCN4CCC[C@H]4CN4CCCC4)cc3o2)ccc1OCCCN1CCC[C@H]1CN1CCCC1 [Compound 24]	> 10000
9050	120	–	–	CN(C)CCCNCCCOc1ccc(-c2nc3ccc(OCCCNCCCN(C)C)cc3o2)cc1 [Compound 9]	–
350	15.3	26	–	CC(C)(CN1CCOCC1)NCCCOc1ccc(-c2nc3ccc(OCCCNC(C)(C)CN4CCOCC4)cc3o2)cc1 [Compound 10]	9800
170	5.3	6	–	CN(C)[C@H]1CCN(CCCOc2ccc(-c3nc4ccc(OCCCN5CC[C@H](N(C)C)C5)cc4o3)cc2)C1 [Compound 17]	> 10000
